Reference: article PMC7031697, “Mechanism of Activation of AMPK by Cordycepin” (Cell Chemical Biology, 2020)
Where two headings read alike, the source gives them in different places.

Tests used:
[1] = test system: AMPK; test: AMPK activity in anti-AMPK-α immunoprecipitates from HepG2 cells treated with cordycepin; assay type: cell-based, human
Procedure: (§1) HepG2 cells ([…]) were cultured in Minimum Essential Medium (MEM) supplemented with 10% (v/v) FBS, 1% (v/v) non-essential amino acids and 1% (v/v) penicillin/streptomycin. Transient transfection of DNAs encoding FLAG-tagged AMPK-γ2 or an R531G mutant of AMPK-γ2 were carried out 36-48 hr prior to experiments using Fugene 6 according to manufacturers’ instructions. U2OS cells ([…]) were cultured in Dulbecco’s Modified Eagle’s Medium (DMEM) supplemented with 10% (v/v) FBS and 1% (v/v) penicillin/streptomycin.
(§2) Endogenous AMPK in crude cell lysates was first immunoprecipitated using an equal mixture of anti-α1 and –α2 antibodies (150 μg protein) by incubation at 4°C for 2 hr on a roller mixer. After extensive washing, the immunoprecipitates were assayed for AMPK activity (50 μg per assay, total assay volume 50 μl) using the AMARA peptide (200 μM) as substrate in the presence of 200 μM AMP, 5 mM MgCl2 and 200 μM [γ-^32P]ATP ([Fyffe et al., 2018]).

[2] = test system: HepG2 cells; test: MTT assay for cell proliferation; assay type: cell-based, human
Procedure: After treatment for the specified time, the effect of cordycepin on cell proliferation was determined using the MTT assay kit (Abcam, ab211091) as per manufacturers’ instructions.

[3] = test system: HepG2 cells; test: Clonal survival assay, HepG2; assay type: cell-based, human; conditions: for EC50: Homo sapiens, read-out: half-maximal effect on cell survival
Procedure: Cells were seeded into 6-well plates at equal density and treated in triplicate at 40% to 60% confluence with vehicle or cordycepin for the indicated time. Cells were trypsinized in 1 ml trypsin:EDTA for 5 min and diluted in 1 ml of complete medium. Cells in control wells were counted using a hemocytometer and 1000 cells from vehicle and cordycepin-treated wells were seeded in triplicate into 10 cm dishes containing 10 ml of medium. The dishes were incubated at 37°C for 10-15 days. […] The dishes were washed with water and the number of colonies counted manually.

[4] = test system: AMPK DKO U2OS cells; test: Clonal survival assay, AMPK DKO U2OS; assay type: cell-based; conditions: Homo sapiens, 8 h incubation, read-out: half-maximal effect on clonal survival
Description: AMPK-α1^-/- -α2^-/- U2OS cells were generated using the Cas9 (D10A) double nickase system. Pairs of guide RNAs targeted to exon 4 in both PRKAA1 and PRKAA2, along with screening primers for genotyping, were designed and cloned by Thomas Macartney and are available by contacting MRCPPU Reagents and Services (https://mrcppureagents.dundee.ac.uk). Sense guides were cloned into the puromycin-selectable pBABED puro U6 vector and antisense guides into the Cas9 (D10A) vector pX335. U2OS cells carrying a Flp recombinase target site were transfected with 1 μg of each plasmid using Fugene6 according to manufacturers’ instructions. At 24 and 48 hr after transfection, medium was replaced with fresh medium containing 1 μg/ml puromycin. […] Clones were expanded and screened for loss of AMPK protein and activity by Western blotting using anti-AMPK-α and pACC antibody normalised to total ACC detected using streptavidin. […]
Cells were seeded into 6-well plates at equal density and treated in triplicate at 40% to 60% confluence with vehicle or cordycepin for the indicated time. […] Cells in control wells were counted using a hemocytometer and 1000 cells from vehicle and cordycepin-treated wells were seeded in triplicate into 10 cm dishes containing 10 ml of medium. […] The dishes were washed with water and the number of colonies counted manually.

[5] = biological target: T1, AMPK complexes containing WT γ2 (Homo sapiens, UniProt Q9UGJ0); test: AMPK activity in anti-FLAG immunoprecipitates, HepG2 cells with FLAG-tagged WT AMPK-γ2; assay type: cell-based; conditions: 1 h, 300 μM cordycepin, 10 mM phenformin or 300 μM A-769662
T1 construct: expressed in transfected cells; host or cells: HepG2 (transient, Fugene 6)
T1 sequence (Q9UGJ0 whole entry, one chain of several): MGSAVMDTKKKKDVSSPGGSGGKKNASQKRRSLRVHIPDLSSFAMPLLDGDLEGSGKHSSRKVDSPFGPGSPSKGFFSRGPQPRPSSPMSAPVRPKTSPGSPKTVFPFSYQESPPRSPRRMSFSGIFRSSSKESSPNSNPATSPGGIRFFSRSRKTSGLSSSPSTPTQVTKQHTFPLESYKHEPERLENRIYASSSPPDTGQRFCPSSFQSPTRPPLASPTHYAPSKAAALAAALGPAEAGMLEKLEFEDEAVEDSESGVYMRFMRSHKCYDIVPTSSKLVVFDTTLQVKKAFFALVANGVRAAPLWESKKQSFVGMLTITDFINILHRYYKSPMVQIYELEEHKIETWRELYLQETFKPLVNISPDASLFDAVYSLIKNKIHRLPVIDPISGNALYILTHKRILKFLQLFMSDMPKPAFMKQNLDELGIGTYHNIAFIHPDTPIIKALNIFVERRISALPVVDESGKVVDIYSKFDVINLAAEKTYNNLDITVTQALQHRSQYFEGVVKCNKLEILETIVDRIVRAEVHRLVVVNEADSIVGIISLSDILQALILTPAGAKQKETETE
Procedure: as §1
HepG2 cells were transiently transfected with DNAs encoding FLAG-tagged wild type AMPK-γ2 or the R531G mutant, using Fugene 6 according to the manufacturers’ instructions. After transfection for 48 hr, cells were treated with various agents as described, and cell lysates prepared ([Hawley et al., 2018]). FLAG-tagged AMPK was then immunoprecipitated from 150 μg total protein by incubation at 4°C for 2 hr on a roller mixer with 9 μl of EZview Red anti-FLAG M2 affinity gel. After extensive washing, the immunoprecipitates were assayed for AMPK activity (50 μg per assay in a total volume of 50 μl) using the AMARA peptide (200 μM) as substrate in the presence of 200 μM AMP, 5 mM MgCl2 and 200 μM γ-^32P-ATP as described previously ([Fyffe et al., 2018]).

[6] = test system: AMPK; test: AMPK activation in HepG2 cells in medium without serum but with 0.02% BSA; assay type: cell-based, human; conditions: medium with 0.02% BSA vs 10% serum
Procedure: as §2

[7] = set-up: method as in Wei et al., 2009; conditions: mice, single oral dose of 63 mg/kg; ref Wei et al., 2009; cited from earlier work
[8] = test system: AMPK; set-up: method as in Guo et al., 2010; conditions: HepG2 cells, medium without serum but with 0.02% (w/v) BSA; ref Guo et al., 2010; cited from earlier work

Nc1ncnc2c1ncn2[C@@H]1O[C@H](CO)C[C@H]1O [cordycepin, 3′-deoxyadenosine]
AMPK activation ([1]; 30 μM cordycepin, 1 h, medium with serum): No activation was evident | time of return of AMPK phosphorylation and activation to baseline ([1]; 100 μM cordycepin, time course): ≤ 4 h | peak increase in phosphorylation and activation of AMPK ([1]; 100 μM cordycepin, time course, at 1 h): ≈ 2 fold | EC50 ([1]; cordycepin 1 h, medium with serum, read-out: half-maximal effect (EC50) on AMPK kinase activity): 310 ± 60 µM | kinase activity of AMPK, maximum increase ([1]; cordycepin 1 h, medium with serum, ±SEM): 7 ± 1 fold | effect on cell proliferation ([2]; 30 μM, after 72 h): only very small effects | decrease in cell proliferation ([2]; 100 μM, after 72 h): 30% | effect on cell proliferation ([2]; 300 μM): completely prevented cell proliferation | effect on cell proliferation ([2]; 1 mM): completely prevented cell proliferation | effect on clonal survival ([3]; 100 μM): only partial effects | effect on clonal survival ([3]; 300 μM): almost complete death | effect on clonal survival ([3]; 1 mM): almost complete death | EC50 ([3]; 2 h treatment): 130 µM | EC50 ([3]; 8 h treatment): 70 µM | EC50 ([3]; 24 h treatment): 35 µM | EC50 [4]: 44 ± 2 µM | activation of AMPK complexes containing WT γ2 [5]: activated | potency of AMPK activation compared with medium containing serum [6]: much more potent | peak plasma concentration [7]: 10 µM | plasma half-life [7]: 2.1 h | time to peak plasma concentration [7]: 1.5 h | concentration at which AMPK was activated [8]: ≥ 1 µM
